Read-outs that look alike come from different tables or passages of the source.
Legend:
TIGK cells = assay: LDH release (CytoTox 96); format: cell-based, human; details: 18 h
Description: (§1) The CytoTox 96 nonradioactive cytotoxicity assay (Promega Inc. Madison, WI) was used to determine extracellular lactate dehydrogenase activity (LDH) in TIGK, J774A.1, and HL60 cell cultures treated with the test compounds. […] After an 18-h incubation, the cell supernatant was collected by centrifugation at 250 × g for 4 min, and 50 μl of cell free supernatant was transferred into wells of a fresh 96-well microtiter plate. Subsequently, 50 μl of the LDH substrate was added in each well and incubated at room temperature for 30 min. Reactions were stopped by adding 50 μl of the stop solution according to the manufacturer’s protocol, and the endpoint was measured by determining optical density at 490 nm. Cells treated with culture medium containing 0.1% DMSO or with medium alone served as negative controls, and cells incubated with 15-μl lysis buffer (supplied by manufacturer) for 1 h served as a positive control for lysis. All samples were tested in triplicate.

HL60 cells [1] = assay: LDH release (CytoTox 96); format: cell-based, human; details: 18 h
Description: as §1

S. gordonii = assay: microbicidal activity: growth curve in medium with compound; format: cell-based, Streptococcus gordonii; details: 40 μM, 24 h, OD600
Description: (§2) To confirm that N7, N17, and V8 function by inhibiting P. gingivalis adherence to S. gordonii rather than acting as antibacterial agents, the microbicidal activity of the compounds was determined by growing the organisms in medium containing 40 μM of each compound for 24 h. […] The structures of compounds N7, N17, and V8 are shown in Fig. 3A, B, and C, respectively. In addition, overlays of compound N17 with the NITVK motif and compound V8 with the VXXLL motif of Ag I/II are shown in Fig. 3D and E, respectively.
(§3) FIG 2 S. gordonii (A) and P. gingivalis (B) were grown for 24 h in medium containing 40 μM of each compound, and growth was quantified at various time points by measuring the OD600 for each culture. One-way analysis of variance (ANOVA) was performed to determine statistical significance.
(§4) P. gingivalis ATCC 33277 was cultured in reduced Trypticase soy broth-yeast extract (TSBY) medium comprised of 30 g/liter TSB (Difco Laboratories Inc., Detroit, MI), 5% (wt/vol) yeast extract supplemented with 5 mg/liter hemin and 1 mg/liter menadione under anaerobic conditions (10% CO2, 10% H2, and 80% N2) at 37°C for 48 h. Reduced TSBY medium was prepared by incubating the medium under anaerobic conditions at 37°C for 24 h prior to bacterial inoculation. Streptococcus gordonii DL1 was grown in brain heart infusion (BHI) (Difco Laboratories Inc.) broth supplemented with 5% (wt/vol) yeast extract under anaerobic conditions as described above.

HL60 cells [2] = details: 18 h
Description: The mouse macrophage cell line J774A.1 was grown in Dulbecco’s modified Eagle medium (DMEM) (Thermo Fisher Scientific, Waltham, MA) supplemented with 4.5 g/ml glucose, 10% fetal bovine serum (FBS), and 100 U/ml penicillin-streptomycin (Sigma-Aldrich, St. Louis, MO). HL60 (ATCC CCL240) cells were obtained from the American Type Culture Collection and cultured in Iscove’s modified Dulbecco’s medium (Sigma-Aldrich) supplemented with 20% fetal bovine serum (FBS) (Sigma-Aldrich).
The apoptotic activity of the compounds was determined using the phycoerythrin (PE) annexin V/dead cell apoptosis kit with Sytox green for flow cytometry (Invitrogen, Carlsbad, CA). Cells were grown in 12-well flat-bottom microtiter plates at an initial density 2 × 10^5 cells in 1.5-ml medium per well for 24 h. Following the incubation period, spent medium was replaced with fresh medium containing the desired concentration of the test compound and incubated for another 18 h. After trypsinization, cells were harvested by centrifuging at 250 × g for 4 min, and the cell pellet was suspended in 100 μl of binding buffer supplemented with 1 μl Sytox and 5 μl annexin V, followed by incubation at 37°C for 15 min. Samples were then diluted by adding 400-μl binding buffer, and flow cytometry was performed using a FACScalibur flow cytometer (Becton, Dickinson, Franklin Lakes, NJ), measuring the fluorescence emissions at 530 nm and 575 nm.

P. gingivalis = assay: microbicidal activity: growth curve in medium with compound; format: cell-based, Porphyromonas gingivalis; details: 40 μM, 24 h, OD600
Description: as §2, §3, §4

[3] = tested on: P. gingivalis adherence to S. gordonii; assay: organism not typed; format: cell-based, Porphyromonas gingivalis; details: for dose-dependent inhibition of P. gingivalis adherence and biofilm formation: 5, 10, 15, 25, and 40 μM; for inhibition at 40 µM: read-out: inhibition of P. gingivalis adherence to S. gordonii and biofilm formation
Description: Using the two species biofilm model described by Patil et al. ([19]), the in vitro effectiveness of the compounds was determined by their ability to inhibit P. gingivalis adherence to S. gordonii and subsequent biofilm formation at an initial concentration of 40 μM.
To quantify P. gingivalis adherence to S. gordonii, a two-species biofilm model was employed as previously described ([19], [33]). Briefly, 20 ml of an overnight culture of S. gordonii was centrifuged at 5600 × g (MIKRO 220R, Hettich Zentrifugen) for 10 min, and the harvested cells were washed with phosphate-buffered saline (PBS; 10 mM Na2HPO4, […], […], and 2.7 mM KCl [pH 7.2]). To label S. gordonii, the cell pellet was suspended in 1 ml of PBS containing 20 μl of 5 mg/ml of hexidium iodide (Molecular Probes; Eugene, OR) and incubated in the dark for 15 min at room temperature with gentle shaking. The labeled cells were than centrifuged at 5600 × g for 5 min and washed twice with PBS. Finally, the cells were suspended in PBS to a final optical density at 600 nm (OD600) of 0.6, and 1 ml of labeled S. gordonii cells was added to each well of a 12-well microtiter plate (Greiner Bio-one, Monroe, NC) containing a circular coverslip (Fisher Scientific, Hampton, NH). Plates were incubated at 37°C for 24 h under anaerobic conditions on a rotary shaker. On the following day, cells from a 10-ml overnight P. gingivalis culture were harvested as described above and fluorescent labeling was performed by incubating the cells in 1 ml PBS containing 20 μl of 5(6)-carboxyfluorescein N-hydroxysuccinimide ester (4 mg/ml) (Thermo Fisher, Waltham, MA) for 30 min in the dark at room temperature with gentle shaking. After being washed two times with PBS, the labeled cells were suspended in PBS at a final OD600 of 0.4. While this reaction was carried out, unattached S. gordonii cells were removed from each well by aspiration, and subsequently, 1 ml of labeled P. gingivalis cells alone or with the desired concentration of the compounds to be tested was added to each well of the microtiter plates. Plates were incubated at 37°C for 24 h under anaerobic conditions. The compounds that were tested were initially dissolved in dimethyl sulfoxide (DMSO) to generate a 1,000× stock solution and subsequently diluted in the cell suspensions to obtain the working concentration. For the control wells, DMSO without a test compound was added to a final concentration of 0.1% in order to maintain a constant DMSO concentration in all wells.
Unbound P. gingivalis cells were removed from each well by aspiration, and the coverslips were washed twice with 5 ml of PBS. Biofilms were then fixed with 4% paraformaldehyde for 5 min in the dark and washed two times with 5 ml of PBS. The coverslips were mounted on a glass slide (Sigma-Aldrich) containing a drop of Prolong gold anti-fade agent (Molecular Probes, Eugene, OR) and sealed with transparent nail polish.
Visualization of the biofilms was carried out by laser scanning confocal microscopy using an SP8 confocal microscope (Leica Microsystems, Inc., Buffalo Grove, IL), with the laser source settings at 488 nm and 552 nm to visualize P. gingivalis and S. gordonii, respectively. Images were collected using a Z plane scan for a depth of 25 μm using a Z step thickness of 0.7 μm. Background noise was reduced using the software that was supplied with the Leica SP8 microscope. Three-dimensional reconstruction of the Z plane scans and quantification of the red and green channel fluorescence were performed using Volocity 6.3 image analysis software (PerkinElmer, Waltham, MA).

Compound	LDH release (TIGK cells; 40 μM)	LDH release (HL60 cells [1]; HL-60 cells, 20 μM and 40 μM)	growth curve versus medium alone or 0.1% DMSO (S. gordonii)	Early apoptosis (%) (HL60 cells [2]; HL60, 5 μM)	Late apoptosis/necrosis (%) (HL60 cells [2]; HL60, 5 μM)	Live cells (%) (HL60 cells [2]; HL60, 5 μM)	Early apoptosis (%) (HL60 cells [2]; HL60, 20 μM)	Late apoptosis/necrosis (%) (HL60 cells [2]; HL60, 20 μM)	Live cells (%) (HL60 cells [2]; HL60, 20 μM)	Early apoptosis (%) (HL60 cells [2]; HL60, 40 μM)	Late apoptosis/necrosis (%) (HL60 cells [2]; HL60, 40 μM)	Live cells (%) (HL60 cells [2]; HL60, 40 μM)	growth curve versus medium alone or 0.1% DMSO (P. gingivalis)	dose-dependent inhibition of P. gingivalis adherence and biofilm formation [3]	inhibition at 40 µM [3] [%]	LDH release (TIGK cells; versus negative controls)	LDH release (HL60 cells [1]; HL-60 cells, 5, 20 and 40 μM)	IC50 ([3]; Porphyromonas gingivalis, read-out: 50% inhibitory concentration (IC50) of P. gingivalis adherence in vitro) [µM]
Cl.N=c1n(CCN2CCCCC2)c2ccccc2n1CC(O)COc1ccc(Cl)cc1 (stereo not shown) [N7, 1-(4-chlorophenoxy)-3-{2-imino-3-[2-(piperidin-1-yl)ethyl]-2,3-dihydro-1H-1,3-benzodiazol-1-yl}propan-2-ol hydrochloride]	significant increase in LDH release	significant increases	not significantly different	3.6	7.8	87.4	20.9	43.9	27.3	7.7	70.8	18.9	not significantly different	inhibited P. gingivalis adherence and biofilm formation in a dose-dependent manner	40	–	–	–
O=C(Nc1ccccc1O)c1cccc(N2C(=O)c3ccc(C(=O)Nc4ccccc4O)cc3C2=O)c1 [N17, N-(2-hydroxyphenyl)-2-{3-[(2-hydroxyphenyl)carbamoyl]phenyl}-1,3-dioxo-2,3-dihydro-1H-isoindole-5-carboxamide]	–	–	not significantly different	2.7	4.7	91.3	2.2	6.0	90.3	2.3	6.3	91.6	not significantly different	inhibited P. gingivalis adherence and biofilm formation in a dose-dependent manner	60	did not significantly differ from the negative controls	no significant effect	~18
Cc1cc([C@H]2CCCN(CC(=O)NC3(C#N)CCCC3)C2)n[nH]1 [V8, N-(1-cyanocyclopentyl)-2-[3-(5-methyl-1H-pyrazol-3-yl)piperidin-1-yl] acetamide]	–	–	not significantly different	2.9	5.6	91.8	3.7	5.0	91.3	2.4	6.7	88.4	not significantly different	inhibited P. gingivalis adherence and biofilm formation in a dose-dependent manner	≥ 40	did not significantly differ from the negative controls	no significant effect	–

Reference: PMC7577153, “Identification of Small-Molecule Inhibitors Targeting Porphyromonas gingivalis Interspecies Adherence and Determination of Their In Vitro and In Vivo Efficacies” (Antimicrobial Agents and Chemotherapy, 2020)
